The values below come from PubChem BioAssay (NCI).

Some test systems named below: A549 NSCLC; K-562 leukemia; OVCAR-5 ovarian; SF-295 CNS; CAKI-1 renal; MOLT-4 leukemia; COLO 205 colon; HOP-92 NSCLC; HOP-62 NSCLC; MALME-3M melanoma.
Assay in all cases: NCI anticancer screen, dose series, 48 h

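Values below derive from 48-hour exposures of cells grown in 96-well plates, with endpoints linearly interpolated between the two concentrations bracketing the appropriate inhibition level. The concentration for 50% growth inhibition is given as GI50. The concentration for full growth arrest is given as TGI.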

In the case of `c1ccc(C2=Nc3ccccc3N3CNN=C23)cc1`, the GI50 in the assay with A549 NSCLC is greater than 100 µM; in the assay with K-562 leukemia, 90.1 µM; with OVCAR-5 ovarian, greater than 100 µM; with SF-295 CNS it was greater than 100 µM; with CAKI-1 renal, greater than 100 µM; in the assay on MOLT-4 leukemia, 24.2 µM. The GI50 in the assay on COLO 205 colon is greater than 100 µM; in the assay on HOP-92 NSCLC, 15 µM; with HOP-62 NSCLC, greater than 100 µM; in the assay on MALME-3M melanoma it was greater than 100 µM. For the same compound, the TGI with A549 NSCLC, in the assay with K-562 leukemia, in the assay on OVCAR-5 ovarian, with SF-295 CNS, with CAKI-1 renal and with MOLT-4 leukemia was greater than 100 µM each time. Also, the TGI in the assay with COLO 205 colon was greater than 100 µM; with HOP-92 NSCLC it was 51.5 µM; in the assay on HOP-62 NSCLC, greater than 100 µM; in the assay on MALME-3M melanoma it was greater than 100 µM.
As for `CC(=O)NNc1nc(C)c(C(=O)/C=C/c2ccc(N(C)C)cc2)s1`, the TGI in the assay on A549 NSCLC, in the assay with K-562 leukemia, with OVCAR-5 ovarian, with SF-295 CNS, in the assay on CAKI-1 renal and in the assay on MOLT-4 leukemia was greater than 100 µM in each case. Also, the TGI in the assay with COLO 205 colon, with HOP-92 NSCLC, in the assay on HOP-62 NSCLC and in the assay on MALME-3M melanoma was greater than 100 µM throughout.
Regarding `NC(=S)N/N=C/C(O[C@@H](/C=N/NC(N)=S)CO)n1cnc2c(N)ncnc21` (stereo not given in full), the TGI with A549 NSCLC, with K-562 leukemia, with OVCAR-5 ovarian, in the assay with SF-295 CNS, in the assay on CAKI-1 renal and with MOLT-4 leukemia was greater than 100 µM in each case. Further, the TGI in the assay with COLO 205 colon is greater than 75.9 µM; with HOP-92 NSCLC, greater than 100 µM; with HOP-62 NSCLC, greater than 100 µM; in the assay with MALME-3M melanoma, greater than 100 µM.
